The test system of series [1] is Normal human dermal fibroblasts (NHDFs). The class given is cell-based. Here is the method: Next, the effect of these polypeptides on the growth of human umbilical vein endothelial cells (HUVECs) was studied. A cell growth activity of the polypeptides was examined using Cell Counting Kit (WST-1) available from Dojindo Laboratories. As a negative control (Control), polypeptide-free group was used. Cells (human umbilical vein endothelial cells: HUVECs) were plated in a 96-well plate (0.5×10^4 cells/well/100 μL, serum 1%). About 3 hours after plating the cells, the polypeptides (1, 3, 10, 30 or 100 μg/ml) and FGF (100 ng/ml) as a positive control were individually added thereto in an amount of 100 μL. To the unstimulated group, only a medium was added in an amount of 100 μL. The plate was left to stand in a CO2 incubator for about 48 hours. Thereafter, WST-1 reagent was added to each well in an amount of 20 μL, and then the plate was left to stand in a CO2 incubator for about 2 hours. Absorbances at wavelengths of 450 nm and 620 nm were measured using Wallac 1420 ARVOsx (Program: WST-1). A value of O.D.450-O.D.620 was calculated for each measurement. […] The cell growth activity was evaluated on the basis of the ratio of Net O.D.450 of polypeptide-containing groups relative to Net O.D.450 of the unstimulated group.
Then, the effect on the growth of normal human dermal fibroblasts (NHDFs) was also studied by the same method as described above.

Series [2] has as its system Pseudomonas aeruginosa (clinical strain 8). The series can be described thus: MIC measurement, broth microdilution. It is filed as cell-based. Conditions: 37° C. for 20 hours; tested twice, first/second value where not matched. (In broth dilution the organism is exposed to a series of concentrations in liquid medium.)
The subject of series [3] is burn-ulcer model, hairless rats. The series can be described thus: Effect to heal burn ulcers. The class given is in vivo, rat. Conditions: 0.2 μg/μL (20 μg/wound), once a day. Here is the method:
A burn model was produced using 7-week old male hairless rats (HWY/slc), and the healing effect of the polypeptides of the present invention was examined. The burn-ulcer model was produced by contacting a red hot iron (at 100° C., φ12 mm) to the back of each rat for 5 seconds under anesthesia with ether to induce a burn. […] On the day after inducing the burn, the necrotic skin was surgically removed to obtain a burn model. After producing the burn model, the test substance was administered onto the wound site, and a covering was used to cover over that (Day 0). Only a covering was used in the Control. Thereafter, the test substance was administered once a day on every measurement day. And, on Day 6 and Day 8, the change of the area of the wound was measured by calculating measured values from a digital caliper and digital images, and the area where the burns had still not healed was measured to calculate the ratio of it relative to the area where the burns were created (Day 0). The concentration of the test substances were individually 0.2 μg/μL (20 μg/wound).

The test system of another series is cut-wound model, SD rats. The series can be described thus: Evaluation of skin tissue in cut wound healing (HE staining). It is filed as in vivo, rat. To be noted: 10 μg dropwise once a day until suture removal, skin collected Day 6. Here is the method: A cut-wound model was produced using 7-week old male SD rats (Crl:CD), and the change in the skin tissue caused by administering the polypeptides of the present invention was evaluated. A cut wound of 30 to 36 mm was made on the back of the rats using a safety razor, and sutured at 3 points equally spaced (Day 0). Onto the suture site, 50 μL of each of the test substances which were respectively adjusted to the concentration of 200 μg/mL was added dropwise (the added amount was 10 μg). Each test substance was administered dropwise once a day till the day when the sutures were removed. On Day 3 after the suturing, the sutures were removed; and, on Day 6, the skin tissue in the cut wound site was collected to evaluate the skin by HE staining

Series [4] deals with Pseudomonas aeruginosa (clinical strain 12). Kind of series: MIC measurement, broth microdilution. The class given is cell-based. Conditions: 37° C. for 20 hours; tested twice, first/second value where not matched.
Series [5] is described as follows: Stability in human serum (HPLC). To be noted: 37° C. The class given is in vitro ADME. Here is the method:
The stability of the polypeptides in serum was evaluated. In human serum (purchased from KAC Co., Ltd.), or in rat serum obtained by collecting blood from a rat, then leaving the collected blood to stand at room temperature followed by centrifugation, each of the peptides was dissolved so as to attain a final concentration of 500 μg/mL, and the obtained solutions were left to stand at 37° C. After leaving to stand for 3 min or 10 min, these solutions were subjected to HPLC chromatogram analysis to detect peaks of the decomposition products, and calculate the ratio of the concentration of the peptides which remained in the solutions relative to the starting concentration. In addition, the half-lives of the peptides in serum were also calculated.

Series [6] deals with rat infected-wound model (wound infected with Staphylococcus aureus). The series can be described thus: Healing effect in infected wounds. It is filed as in vivo. To be noted: 50 μg dropwise Days 0-3 with Staphylococcus aureus, followed to Day 10; vs bFGF formulation 3 μg. Here is the method: Referring to Stenberg B D et al. (J Surg Res. 1991 January; 50(1):47-50.) and Hayward P et al. (Am J Surg. 1992 March; 163(3):288-93.), a rat infected-wound model was produced as described below. HWY/slc hairless rats (male, 7-week old, obtained from Japan SLC, Inc.) were used. The day before full-thickness defects were created, the number of leukocytes was measured and cyclophosphamide was administered in tail vein (100 mg/kg). On the next day, the number of leukocytes was counted. Only the individuals in which the number of leukocytes was not more than 5000, were used. A square-shaped full-thickness defects of 1.73×1.73 cm (about 3 cm^2) were created on the back of the rats, and 25 μL of Staphylococcus aureus (about 10^5 CFU/25 μL) and SR-07 or SR-08 peptide as a test substance (2 mg/mL) was added dropwise onto the defect sites (the administered amount was 50 μg). On the other hand, 25 μL of the bFGF formulation (3 μg/25 μL) was added dropwise in the bFGF formulation (a positive control) group, and 25 μL of physiological saline was added dropwise in the negative control groups. […] From the day when the full-thickness defects were created to Day 10, the area where the wounds had still not healed was measured to calculate the ratio of it relative to the area where the wounds were created, and the results were shown in graphs (FIG. 9 (SR-07) and FIG. 10 (SR-08)).

Usually half-life stands for how long it takes for the measured level to halve. A lower half-life goes with fast loss.

Where a SMILES comes first, the peptide text is derived from it. [ ]: non-standard residue; d: D form.

With `CC[C@H](C)[C@H](NC(=O)[C@H](CC(C)C)NC(=O)[C@H](CCCCN)NC(=O)[C@@H](N)CC(C)C)C(=O)N[C@@H](Cc1ccccc1)C(=O)N[C@@H](CC(C)C)C(=O)N[C@@H](Cc1c[nH]cn1)C(=O)N[C@@H](CCCNC(=N)N)C(=O)N[C@@H](CC(C)C)C(=O)N[C@@H](CCCCN)C(=O)N[C@@H](CCCNC(=N)N)C(=O)N[C@@H](CCSC)C(=O)N[C@@H](CCCNC(=N)N)C(=O)N[C@@H](CCCCN)C(=O)N[C@@H](CCCNC(=N)N)C(=O)N[C@@H](CC(C)C)C(=O)N[C@H](CCCCN)C(=O)N[C@@H](CCCNC(=N)N)C(=O)N[C@@H](CCCCN)C(N)=O` [SR-08] (H-LKLIFLHRLKRMRKRL[dK]RK-NH2; N-terminus assumed), in series [1], the “Concentration above which the polypeptide tended to exhibit toxicity, NHDFs (FIG. 4)” value is greater than 30 µg/mL. Besides, the “MIC, Pseudomonas aeruginosa (clinical strain 8)” value in series [2] is given as 16/32. Also, in series [3], the “Healing effect in burn-ulcer model (unhealed area ratio Day 6 and Day 8, FIGS. 14 and 15)” value was “showed a therapeutic effect also in the burn-ulcer model”. For the same compound, in the series on cut-wound model, SD rats, the “Granulation and collagen at cut wound site (HE staining)” value is “increased compared to Saline”; the “Thickening in stratum spinosum epidermidis (HE staining)” value is on record as “less than the saline group”. The “MIC, Pseudomonas aeruginosa (clinical strain 12)” value in series [4] was 16/32. Moreover, the “Ratio of peptide remaining relative to the starting concentration, human serum, 0 min” value in series [5] (500 μg/mL, 0 min) was found to be 100. Also, the remaining at 0.05 h, 500 μg/mL in series [5] (human, human serum, 3 min, read-out: Ratio of peptide remaining relative to the starting concentration, human serum, 3 min) came to 95%. Further, in series [5] (human, human serum, 10 min, read-out: Ratio of peptide remaining relative to the starting concentration, human serum, 10 min), the remaining at 10 min, 500 μg/mL was 65.8%. The compound further registered a half-life in series [5] (human, serum, 500 μg/mL) of 16 min. Besides, in series [6], the “Healing effect on infected wounds (unhealed area ratio, FIGS. 9 and 10)” value is “showed a higher healing effect on infected wounds than the bFGF formulation”.
